Results taken from the supplement of paper PMC12592484.

Each compound was assayed on PF179T (assay: drug sensitivity score (DSS2, normalised partial AUC of dose-response, 72 h CellTiter-Glo viability) (DSS (dimensionless)); higher = more sensitive (stronger growth inhibition / cytotoxicity); extreme values may be limits of the assay).
Outline: (§1)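 Viability of low-passage primary prostate cancer-associated fibroblasts, PF179T, WPMY-1, LNCaP and 22Rv1 cells was read by CellTiter-Glo 2.0 luminescence 72 h after seeding onto compounds pre-dispensed in 384-well plates at five doses over a 10,000-fold range. Readings were scaled between vehicle and positive-control wells. Sensitivity is reported as a drug sensitivity score from BREEZE, namely a partial area under the fitted logistic curve divided by the log of its upper asymptote, where higher means more sensitive.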
Compound `C[C@H]1Oc2cc(cnc2N)-c2c(nn(C)c2C#N)CN(C)C(=O)c2ccc(F)cc21` [Lorlatinib] (tested concentration range 0.1-1000 nM) has a drug sensitivity score of 0.
Compound `Cc1c(F)cc(C(=O)NC2CC2)cc1-c1ccc(C(=O)NCC(C)(C)C)cn1` [Losmapimod] (tested concentration range 1-10000 nM) has a drug sensitivity score of 0.
`CC[C@H](C)C(=O)O[C@H]1C[C@@H](C)C=C2C=C[C@H](C)[C@H](CC[C@@H]3C[C@@H](O)CC(=O)O3)[C@H]21` [Lovastatin] (tested concentration range 1-10000 nM) gave a drug sensitivity score of 3.3.
Compound `CNC(=O)c1cccc2cc(Oc3ccnc4cc(OCC5(N)CC5)c(OC)cc34)ccc12` [Lucitanib] (tested concentration range 1-10000 nM) has a drug sensitivity score of 5.7.
With `O=C(O)CC[C@H]1CC[C@@](c2cc(F)ccc2F)(S(=O)(=O)c2ccc(Cl)cc2)CC1` [MK-0752] (tested concentration range 0.1-1000 nM) the drug sensitivity score was 0.
With `NC1(c2ccc(-c3nc4ccn5c(=O)[nH]nc5c4cc3-c3ccccc3)cc2)CCC1` [MK-2206] (tested concentration range 0.1-1000 nM) the drug sensitivity score was 1.8.
`O=C(c1cccc(Cl)c1F)N1CCN(Cc2cccc(Nc3nccs3)n2)CC1` [MK-8745] (tested concentration range 1-10000 nM) gave a drug sensitivity score of 5.
`O=C(Nc1cccc(NC(=O)c2cccc(O)c2O)c1)c1cccc(O)c1O` [MST-312] (tested concentration range 1-10000 nM) gave a drug sensitivity score of 10.7.
With `CNC(=O)[C@@H](NC(=O)[C@H](CC(C)C)[C@H](O)C(=O)NO)C(C)(C)C` [Marimastat] (tested concentration range 1-10000 nM) the drug sensitivity score was 0.
In the case of `Cc1ccc(NC(=O)c2ccc(CN3CCN(C)CC3)cc2)cc1Nc1nc(-c2cccnc2)cs1` [Masitinib] (tested concentration range 1-10000 nM), the drug sensitivity score is reported as 2.4.
For `CCN(CC)CCCC(C)Nc1c2ccc(Cl)cc2nc2ccc(OC)cc12` (stereo unspecified) [Mepacrine] (tested concentration range 5-50000 nM), the drug sensitivity score was 13.7.
For `S=c1[nH]cnc2nc[nH]c12` [Mercaptopurine] (tested concentration range 1-10000 nM), the drug sensitivity score was 0.
Compound `Cc1ccc(C(=O)Nc2ccc(Oc3cc4cnn(C)c4cc3-c3cn[nH]c3)c(F)c2)c(=O)n1-c1ccc(F)cc1` [Merestinib] (tested concentration range 0.1-1000 nM) has a drug sensitivity score of 5.3.

Each compound was assayed on CAF#4 (primary prostate cancer-associated fibroblasts of iCAF-like type) in the same assay as above.
Outline: as §1
`Nc1cc(COc2c(Cl)cc(C[C@H](N)C(=O)O)cc2Cl)c2oc(-c3ccccc3)nc2c1` [JPH203] (tested concentration range 0.5-5000 nM) gave a drug sensitivity score of 0.
Compound `CC(C)NC(=O)COc1cccc(-c2nc(Nc3ccc4[nH]ncc4c3)c3ccccc3n2)c1` [KD025] (tested concentration range 0.5-5000 nM) has a drug sensitivity score of 0.1.
Work on `CC(C)[C@@H](CS(=O)(=O)C(C)C)N1C(=O)[C@@](C)(CC(=O)O)C[C@H](c2cccc(Cl)c2)[C@H]1c1ccc(Cl)cc1` [KRT-232] (tested concentration range 1-10000 nM) yielded a drug sensitivity score of 8.6.
`CS(=O)(=O)CCNCc1ccc(-c2ccc3ncnc(Nc4ccc(OCc5cccc(F)c5)c(Cl)c4)c3c2)o1` [Lapatinib] (tested concentration range 0.1-1000 nM) was tested, and the drug sensitivity score was 0.
`O=C(Nc1cnn2ccc(N3CCC[C@@H]3c3cc(F)ccc3F)nc12)N1CC[C@H](O)C1` [Larotrectinib] (tested concentration range 0.1-1000 nM) gave a drug sensitivity score of 0.
`Oc1ccc2c(c1)CC[C@H](c1ccccc1)[C@@H]2c1ccc(OCCN2CCCC2)cc1` [Lasofoxifene] (tested concentration range 0.1-1000 nM) gave a drug sensitivity score of 0.
`Nc1cccc2c1CN(C1CCC(=O)NC1=O)C2=O` (stereo unspecified) [Lenalidomide] (tested concentration range 10-100000 nM) showed a drug sensitivity score of 3.
With `COc1cc2nccc(Oc3ccc(NC(=O)NC4CC4)c(Cl)c3)c2cc1C(N)=O` [Lenvatinib] (tested concentration range 0.2-2500 nM) the drug sensitivity score was 3.
Work on `N#Cc1ccc(C(c2ccc(C#N)cc2)n2cncn2)cc1` [Letrozole] (tested concentration range 1-10000 nM) yielded a drug sensitivity score of 0.
`O=C1CCc2c(Oc3ccc4c(c3)[C@@H]3[C@H](O4)[C@H]3c3nc4cc(C(F)(F)F)ccc4[nH]3)ccnc2N1` [Lifirafenib] (tested concentration range 1-10000 nM) was tested, and the drug sensitivity score was 2.4.
`C[C@]1(O)C[C@@H](c2nc(-c3ccc4ccc(-c5ccccc5)nc4c3)c3c(N)nccn32)C1` [Linsitinib] (tested concentration range 1-10000 nM) was tested, and the drug sensitivity score was 0.
`Nc1nc(OCc2cc(Br)cs2)c2[nH]cnc2n1` [Lomeguatrib] (tested concentration range 1-10000 nM) gave a drug sensitivity score of 0.1.
Work on `NC(=O)N1CCC(CC(=O)N2CCC([C@H]3c4ncc(Br)cc4CCc4cc(Cl)cc(Br)c43)CC2)CC1` [Lonafarnib] (tested concentration range 5-50000 nM) yielded a drug sensitivity score of 9.
`C[C@H]1Oc2cc(cnc2N)-c2c(nn(C)c2C#N)CN(C)C(=O)c2ccc(F)cc21` [Lorlatinib] (tested concentration range 0.1-1000 nM) showed a drug sensitivity score of 2.5.
`Cc1c(F)cc(C(=O)NC2CC2)cc1-c1ccc(C(=O)NCC(C)(C)C)cn1` [Losmapimod] (tested concentration range 1-10000 nM) showed a drug sensitivity score of 0.
With `CC[C@H](C)C(=O)O[C@H]1C[C@@H](C)C=C2C=C[C@H](C)[C@H](CC[C@@H]3C[C@@H](O)CC(=O)O3)[C@H]21` [Lovastatin] (tested concentration range 1-10000 nM) the drug sensitivity score was 3.4.
Work on `CNC(=O)c1cccc2cc(Oc3ccnc4cc(OCC5(N)CC5)c(OC)cc34)ccc12` [Lucitanib] (tested concentration range 1-10000 nM) yielded a drug sensitivity score of 7.4.
`O=C(O)CC[C@H]1CC[C@@](c2cc(F)ccc2F)(S(=O)(=O)c2ccc(Cl)cc2)CC1` [MK-0752] (tested concentration range 0.1-1000 nM) gave a drug sensitivity score of 0.
Compound `NC1(c2ccc(-c3nc4ccn5c(=O)[nH]nc5c4cc3-c3ccccc3)cc2)CCC1` [MK-2206] (tested concentration range 0.1-1000 nM) has a drug sensitivity score of 2.
For `O=C(c1cccc(Cl)c1F)N1CCN(Cc2cccc(Nc3nccs3)n2)CC1` [MK-8745] (tested concentration range 1-10000 nM), the drug sensitivity score was 1.1.
`O=C(Nc1cccc(NC(=O)c2cccc(O)c2O)c1)c1cccc(O)c1O` [MST-312] (tested concentration range 1-10000 nM) was tested, and the drug sensitivity score was 12.9.
In the case of `CNC(=O)[C@@H](NC(=O)[C@H](CC(C)C)[C@H](O)C(=O)NO)C(C)(C)C` [Marimastat] (tested concentration range 1-10000 nM), the drug sensitivity score is reported as 0.
For `Cc1ccc(NC(=O)c2ccc(CN3CCN(C)CC3)cc2)cc1Nc1nc(-c2cccnc2)cs1` [Masitinib] (tested concentration range 1-10000 nM), the drug sensitivity score was 7.6.
With `CCN(CC)CCCC(C)Nc1c2ccc(Cl)cc2nc2ccc(OC)cc12` (stereo unspecified) [Mepacrine] (tested concentration range 5-50000 nM) the drug sensitivity score was 14.2.
`S=c1[nH]cnc2nc[nH]c12` [Mercaptopurine] (tested concentration range 1-10000 nM) gave a drug sensitivity score of 2.8.
`Cc1ccc(C(=O)Nc2ccc(Oc3cc4cnn(C)c4cc3-c3cn[nH]c3)c(F)c2)c(=O)n1-c1ccc(F)cc1` [Merestinib] (tested concentration range 0.1-1000 nM) gave a drug sensitivity score of 4.4.

The compounds below were run on LNCAP in the same assay as above.
Outline: as §1
In the case of `Nc1cc(COc2c(Cl)cc(C[C@H](N)C(=O)O)cc2Cl)c2oc(-c3ccccc3)nc2c1` [JPH203] (tested concentration range 0.5-5000 nM), the drug sensitivity score is reported as 0.
Compound `CC(C)NC(=O)COc1cccc(-c2nc(Nc3ccc4[nH]ncc4c3)c3ccccc3n2)c1` [KD025] (tested concentration range 0.5-5000 nM) has a drug sensitivity score of 4.5.
`CC(C)[C@@H](CS(=O)(=O)C(C)C)N1C(=O)[C@@](C)(CC(=O)O)C[C@H](c2cccc(Cl)c2)[C@H]1c1ccc(Cl)cc1` [KRT-232] (tested concentration range 1-10000 nM) showed a drug sensitivity score of 21.4.
Compound `CS(=O)(=O)CCNCc1ccc(-c2ccc3ncnc(Nc4ccc(OCc5cccc(F)c5)c(Cl)c4)c3c2)o1` [Lapatinib] (tested concentration range 0.1-1000 nM) has a drug sensitivity score of 0.3.
For `O=C(Nc1cnn2ccc(N3CCC[C@@H]3c3cc(F)ccc3F)nc12)N1CC[C@H](O)C1` [Larotrectinib] (tested concentration range 0.1-1000 nM), the drug sensitivity score was 0.
Compound `Oc1ccc2c(c1)CC[C@H](c1ccccc1)[C@@H]2c1ccc(OCCN2CCCC2)cc1` [Lasofoxifene] (tested concentration range 0.1-1000 nM) has a drug sensitivity score of 0.
`Nc1cccc2c1CN(C1CCC(=O)NC1=O)C2=O` (stereo unspecified) [Lenalidomide] (tested concentration range 10-100000 nM) was tested, and the drug sensitivity score was 0.
`COc1cc2nccc(Oc3ccc(NC(=O)NC4CC4)c(Cl)c3)c2cc1C(N)=O` [Lenvatinib] (tested concentration range 0.2-2500 nM) was tested, and the drug sensitivity score was 1.8.
With `N#Cc1ccc(C(c2ccc(C#N)cc2)n2cncn2)cc1` [Letrozole] (tested concentration range 1-10000 nM) the drug sensitivity score was 0.
In the case of `O=C1CCc2c(Oc3ccc4c(c3)[C@@H]3[C@H](O4)[C@H]3c3nc4cc(C(F)(F)F)ccc4[nH]3)ccnc2N1` [Lifirafenib] (tested concentration range 1-10000 nM), the drug sensitivity score is reported as 5.9.
`C[C@]1(O)C[C@@H](c2nc(-c3ccc4ccc(-c5ccccc5)nc4c3)c3c(N)nccn32)C1` [Linsitinib] (tested concentration range 1-10000 nM) was tested, and the drug sensitivity score was 0.6.
For `Nc1nc(OCc2cc(Br)cs2)c2[nH]cnc2n1` [Lomeguatrib] (tested concentration range 1-10000 nM), the drug sensitivity score was 0.
Compound `NC(=O)N1CCC(CC(=O)N2CCC([C@H]3c4ncc(Br)cc4CCc4cc(Cl)cc(Br)c43)CC2)CC1` [Lonafarnib] (tested concentration range 5-50000 nM) has a drug sensitivity score of 16.1.
`C[C@H]1Oc2cc(cnc2N)-c2c(nn(C)c2C#N)CN(C)C(=O)c2ccc(F)cc21` [Lorlatinib] (tested concentration range 0.1-1000 nM) gave a drug sensitivity score of 0.
In the case of `Cc1c(F)cc(C(=O)NC2CC2)cc1-c1ccc(C(=O)NCC(C)(C)C)cn1` [Losmapimod] (tested concentration range 1-10000 nM), the drug sensitivity score is reported as 3.7.
With `CC[C@H](C)C(=O)O[C@H]1C[C@@H](C)C=C2C=C[C@H](C)[C@H](CC[C@@H]3C[C@@H](O)CC(=O)O3)[C@H]21` [Lovastatin] (tested concentration range 1-10000 nM) the drug sensitivity score was 0.
For `CNC(=O)c1cccc2cc(Oc3ccnc4cc(OCC5(N)CC5)c(OC)cc34)ccc12` [Lucitanib] (tested concentration range 1-10000 nM), the drug sensitivity score was 3.4.
For `O=C(O)CC[C@H]1CC[C@@](c2cc(F)ccc2F)(S(=O)(=O)c2ccc(Cl)cc2)CC1` [MK-0752] (tested concentration range 0.1-1000 nM), the drug sensitivity score was 0.
`NC1(c2ccc(-c3nc4ccn5c(=O)[nH]nc5c4cc3-c3ccccc3)cc2)CCC1` [MK-2206] (tested concentration range 0.1-1000 nM) showed a drug sensitivity score of 11.1.
In the case of `O=C(c1cccc(Cl)c1F)N1CCN(Cc2cccc(Nc3nccs3)n2)CC1` [MK-8745] (tested concentration range 1-10000 nM), the drug sensitivity score is reported as 14.7.
Work on `O=C(Nc1cccc(NC(=O)c2cccc(O)c2O)c1)c1cccc(O)c1O` [MST-312] (tested concentration range 1-10000 nM) yielded a drug sensitivity score of 15.6.
For `CNC(=O)[C@@H](NC(=O)[C@H](CC(C)C)[C@H](O)C(=O)NO)C(C)(C)C` [Marimastat] (tested concentration range 1-10000 nM), the drug sensitivity score was 0.
`Cc1ccc(NC(=O)c2ccc(CN3CCN(C)CC3)cc2)cc1Nc1nc(-c2cccnc2)cs1` [Masitinib] (tested concentration range 1-10000 nM) was tested, and the drug sensitivity score was 4.3.
Compound `CCN(CC)CCCC(C)Nc1c2ccc(Cl)cc2nc2ccc(OC)cc12` (stereo unspecified) [Mepacrine] (tested concentration range 5-50000 nM) has a drug sensitivity score of 19.
For `S=c1[nH]cnc2nc[nH]c12` [Mercaptopurine] (tested concentration range 1-10000 nM), the drug sensitivity score was 0.2.
In the case of `Cc1ccc(C(=O)Nc2ccc(Oc3cc4cnn(C)c4cc3-c3cn[nH]c3)c(F)c2)c(=O)n1-c1ccc(F)cc1` [Merestinib] (tested concentration range 0.1-1000 nM), the drug sensitivity score is reported as 0.

Each compound was assayed on WPMY-1 in the same assay as above.
Outline: as §1
`Nc1cc(COc2c(Cl)cc(C[C@H](N)C(=O)O)cc2Cl)c2oc(-c3ccccc3)nc2c1` [JPH203] (tested concentration range 0.5-5000 nM) gave a drug sensitivity score of 0.
In the case of `CC(C)NC(=O)COc1cccc(-c2nc(Nc3ccc4[nH]ncc4c3)c3ccccc3n2)c1` [KD025] (tested concentration range 0.5-5000 nM), the drug sensitivity score is reported as 2.1.
Compound `CC(C)[C@@H](CS(=O)(=O)C(C)C)N1C(=O)[C@@](C)(CC(=O)O)C[C@H](c2cccc(Cl)c2)[C@H]1c1ccc(Cl)cc1` [KRT-232] (tested concentration range 1-10000 nM) has a drug sensitivity score of 0.
`CS(=O)(=O)CCNCc1ccc(-c2ccc3ncnc(Nc4ccc(OCc5cccc(F)c5)c(Cl)c4)c3c2)o1` [Lapatinib] (tested concentration range 0.1-1000 nM) gave a drug sensitivity score of 0.
`O=C(Nc1cnn2ccc(N3CCC[C@@H]3c3cc(F)ccc3F)nc12)N1CC[C@H](O)C1` [Larotrectinib] (tested concentration range 0.1-1000 nM) was tested, and the drug sensitivity score was 0.
For `Oc1ccc2c(c1)CC[C@H](c1ccccc1)[C@@H]2c1ccc(OCCN2CCCC2)cc1` [Lasofoxifene] (tested concentration range 0.1-1000 nM), the drug sensitivity score was 0.
